From publication PMC10564737, “Structure-based design of a phosphotyrosine-masked covalent ligand targeting the E3 ligase SOCS2” (Nature Communications, 2023)
“And” between values parts separate entries of the source, which are not always exact repeats. Identical values can stand only once.

Molecular target: T1, SBC2 (Homo sapiens, UniProt O14508)
T1 construct: SOCS2 (amino acids 32–198); His6 (N, cleaved yes); made in house; host or cells: E. coli BL21(DE3)
Experiment: Covalent fluorescence polarization (FP) probe displacement assay
Format: binding
Conditions: for Anisotropy based on Raw Data (485): Cycle 7 (30 min)
Text: With the specific covalent modification of Cys111 established, we decided to fully characterize MN551 as a covalent SOCS2 inhibitor. […] (Fig. 2g, h, Supplementary Fig. 9). Due to the covalent nature of the competing inhibitor, a time-dependent reduction in the fraction of protein-bound probe is observed. […] This value illustrates reasonable specificity for a covalent inhibitor, with nonetheless scope for future optimization. In addition to characterizing the kinetic covalency parameters, we have also assessed the stability of the MN551 by monitoring its reactivity (half-life >70 min) with reduced glutathione (GSH) (Supplementary Fig. 10)[35].
To monitor the SBC2-ligand binding kinetics we designed a fluorescein-labeled small-molecule probe - compound 26. The fluorescence polarization (anisotropy) of a threefold serial dilution of 50 µM SBC2 in 10 nM of the probe in 100 mM HEPES pH 7.5, 50 mM NaCl, 0.5 mM TCEP, 2% DMSO was measured to determine the KL (Supplementary Fig. 9A) (BMG Labtech PHERAstar – firmware v1.33). Protein titration and the curves were fitted using GraphPad Prism 9, using one-site fitting models to determine the probe binding constant, KL. Samples were run in triplicate in 384 well plates, using a total volume per well of 16 μL. The bound fraction of the probe is measure using the equation:1 Fb=Af−A/Af−Ab Where,
A time-dependent reduction in probe anisotropy were measured for a 2-fold serial dilution of […] compound MN551 in 10 nM probe +300 μM SBC2. To determine the initial reversible binding affinity, the initial bound fraction of the probe at time = 0, Fbo (the y-intercept in Fb v/s Time plot, Supplementary Fig. 9B) was plotted against MN551 concentration, and the obtained IC50 is then converted to Ki (Supplementary Fig. 9C)[17]. The slope from Fb versus time graph when divided by Fbo gives rate of covalency, kobs. A plot of kobs v/s MN551 concentration using Michaelis–Menten model of GraphPad Prism 9, provides the parameters kinact (maximum potential rate of inactivation) and KI (concentration of MN551 at which kobs = kinact/2) (Supplementary Fig. 9D, E).
The observed first-order rate constant, kobs is related to KI and kinact by the equation:2 kobs=kinactI/KI+I
At [I]«[KI] the above equation is converted to3 […]
The slope from the plot of kobs against concentration of MN551 gives us the covalent efficiency parameter kinact/KI (Supp Fig. 9F)[30],[33].

[1] = MN551 48.4003 nM, Cycle 12 (55 min)
[2] = MN551 67.7604 nM, Cycle 12 (55 min)
[3] = MN551 94.8645 nM, Cycle 12 (55 min)
[4] = MN551 132.81 nM, Cycle 6 (25 min)
[5] = MN551 132.81 nM, Cycle 12 (55 min)
[6] = MN551 185.934 nM, Cycle 6 (25 min)
[7] = MN551 185.934 nM, Cycle 12 (55 min)

T1 sequence (O14508 32-198): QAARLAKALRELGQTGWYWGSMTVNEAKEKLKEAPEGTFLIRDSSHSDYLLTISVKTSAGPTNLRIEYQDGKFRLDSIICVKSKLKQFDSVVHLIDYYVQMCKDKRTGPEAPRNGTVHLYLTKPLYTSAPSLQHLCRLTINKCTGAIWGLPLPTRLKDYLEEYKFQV
T1 sequence (Q15370 1-104 partner limits assumed): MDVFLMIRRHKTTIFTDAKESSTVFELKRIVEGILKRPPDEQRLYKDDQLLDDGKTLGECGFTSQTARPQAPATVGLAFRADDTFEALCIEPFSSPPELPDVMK
T1 sequence (Q15369 17-112 partner limits assumed): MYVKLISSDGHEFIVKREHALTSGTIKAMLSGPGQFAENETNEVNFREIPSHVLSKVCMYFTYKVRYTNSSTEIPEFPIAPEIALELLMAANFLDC

O=C(CCl)Nc1cccc(CNC(=O)[C@H](Cc2ccc(OP(=O)(O)O)cc2)NC(=O)Cc2ccc(F)cc2)c1 [MN551]
Fb, fraction bound (MN551 48.4003 nM, Cycle 2 (5 min)): 1.049 and 0.9991 and 1.04
Anisotropy [1]: 281.3 and 275.7 and 274.4
Fb [1]: 1.033 and 1.011 and 0.9942
Anisotropy normalised (0 nM MN551 = 1, free probe = 0) (MN551 48.4003 nM, Cycle 19 (90 min), n=1): 1.03 and 1.015 (2×)
Anisotropy normalised (0 nM MN551 = 1, free probe = 0) (MN551 48.4003 nM, Cycle 20 (95 min), n=1): 1.011 and 0.999 and 0.9749
Anisotropy based on Raw Data (485) (MN551 48.8281 nM): 280.9 and 281.7 and 280.6
Fb, fraction bound (MN551 48.8281 nM, Cycle 2 (5 min)): 1.013 and 1.049 and 1.036
Anisotropy (MN551 48.8281 nM, Cycle 11 (50 min)): 280 and 280.2 and 277
Anisotropy (MN551 48.8281 nM, Cycle 12 (55 min)): 279.7 and 280.1 and 278.6
Anisotropy data 485,520,520 (MN551 48.8281 nM, Cycle 18 (85 min), n=1): 276.3 and 276.1 and 275.6
Anisotropy based on Raw Data (485) (MN551 67.7604 nM): 278.6 and 278.4 and 280
Normalised anisotropy (0 nM MN551 = 1, free probe = 0) (MN551 67.7604 nM, Cycle 13 (60 min), n=1): 1.005 and 0.9558 and 1.011
Normalised anisotropy (0 nM MN551 = 1, free probe = 0) (MN551 67.7604 nM, Cycle 14 (65 min), n=1): 1.03 and 1.001 and 1.016
Fb, fraction bound (MN551 67.7604 nM, Cycle 2 (5 min)): 1.032 and 1.001 and 1.045
Fb, fraction bound (MN551 67.7604 nM, Cycle 3 (10 min)): 1.036
Anisotropy [2]: 277.4 and 276.4 and 273
Fb [2]: 0.9963 and 1.017 and 0.9808
Anisotropy normalised (0 nM MN551 = 1, free probe = 0) (MN551 67.7604 nM, Cycle 19 (90 min), n=1): 1.021 and 1.031 and 0.9864
Anisotropy normalised (0 nM MN551 = 1, free probe = 0) (MN551 67.7604 nM, Cycle 20 (95 min), n=1): 0.999 and 0.9767 and 0.9903
Anisotropy based on Raw Data (485) (MN551 94.8645 nM): 276.5 and 276.4 and 275
Normalised anisotropy (0 nM MN551 = 1, free probe = 0) (MN551 94.8645 nM, Cycle 13 (60 min), n=1): 0.9841 and 0.9576 and 0.9759
Normalised anisotropy (0 nM MN551 = 1, free probe = 0) (MN551 94.8645 nM, Cycle 14 (65 min), n=1): 1.002 and 0.9934 and 0.9731
Normalised anisotropy (0 nM MN551 = 1, free probe = 0) (MN551 94.8645 nM, Cycle 15 (70 min), n=1): 1.0078
Fb, fraction bound (MN551 94.8645 nM, Cycle 2 (5 min)): 1.026 and 1.011 and 0.9914
Fb, fraction bound (MN551 94.8645 nM, Cycle 3 (10 min)): 1.0139 and 1.041 and 0.9705
Anisotropy data 485,520,520 (MN551 94.8645 nM, Cycle 6 (25 min)): 273.7 and 266.4 and 265.9
Anisotropy [3]: 274 and 273.4 and 270.5
Fb [3]: 0.9646 and 0.9885 and 0.9568
Anisotropy normalised (0 nM MN551 = 1, free probe = 0) (MN551 94.8645 nM, Cycle 19 (90 min), n=1): 0.9933 and 1.003 and 0.9475
Anisotropy normalised (0 nM MN551 = 1, free probe = 0) (MN551 94.8645 nM, Cycle 20 (95 min), n=1): 0.9691 and 0.9574 and 0.9304
Anisotropy based on Raw Data (485) (MN551 97.6562 nM): 278.3 and 282.9 and 277.5
Fb, fraction bound (MN551 97.6562 nM, Cycle 2 (5 min)): 1.002 and 1.056 and 1.014
Anisotropy (MN551 97.6562 nM, Cycle 11 (50 min)): 278.8 and 281.3 and 277
Anisotropy (MN551 97.6562 nM, Cycle 12 (55 min)): 279.1 and 279.7 and 276.5
Anisotropy data 485,520,520 (MN551 97.6562 nM, Cycle 18 (85 min), n=1): 274.3 and 275.7 and 270.8
Anisotropy based on Raw Data (485) (MN551 132.81 nM): 277.4 and 277.3 and 272.7
Normalised anisotropy (0 nM MN551 = 1, free probe = 0) (MN551 132.81 nM, Cycle 13 (60 min), n=1): 0.9411 and 0.9327 and 0.945
Normalised anisotropy (0 nM MN551 = 1, free probe = 0) (MN551 132.81 nM, Cycle 14 (65 min), n=1): 0.9679 and 0.9614 and 0.9597
Normalised anisotropy (0 nM MN551 = 1, free probe = 0) (MN551 132.81 nM, Cycle 15 (70 min), n=1): 0.9669 and 0.9677 and 0.9327
Fb, fraction bound (MN551 132.81 nM, Cycle 2 (5 min)): 1.001 and 1.004 and 1.003
Fb, fraction bound (MN551 132.81 nM, Cycle 3 (10 min)): 0.9889 and 1.004 and 0.9829
Anisotropy data 485,520,520 [4]: 272.9 and 266.7 and 268.7
Fb [4]: 1.0105 and 1.013 and 1.036
Anisotropy [5]: 272.8 and 270.5 and 270
Fb [5]: 0.9534 and 0.9607 and 0.952
Anisotropy normalised (0 nM MN551 = 1, free probe = 0) (MN551 132.81 nM, Cycle 19 (90 min), n=1): 0.9528 and 0.958 and 0.9524
Anisotropy normalised (0 nM MN551 = 1, free probe = 0) (MN551 132.81 nM, Cycle 20 (95 min), n=1): 0.9516 and 0.9273 and 0.9285
Anisotropy based on Raw Data (485) (MN551 185.934 nM): 278.1 and 275.4 and 274.1
Normalised anisotropy (0 nM MN551 = 1, free probe = 0) (MN551 185.934 nM, Cycle 13 (60 min), n=1): 0.927 and 0.9051 and 0.9324
Normalised anisotropy (0 nM MN551 = 1, free probe = 0) (MN551 185.934 nM, Cycle 14 (65 min), n=1): 0.9406 and 0.935 and 0.929
Normalised anisotropy (0 nM MN551 = 1, free probe = 0) (MN551 185.934 nM, Cycle 15 (70 min), n=1): 0.9561 and 0.9184 and 0.9202
Fb, fraction bound (MN551 185.934 nM, Cycle 3 (10 min)): 0.9759 and 0.9879 and 0.9619
Anisotropy data 485,520,520 [6]: 271.2 and 265.9 and 264.5
Fb [6]: 1.005 and 0.998 and 1.018
Anisotropy [7]: 270.4 and 269.3 and 268.1
Fb [7]: 0.931 and 0.9492 and 0.9338
Anisotropy normalised (0 nM MN551 = 1, free probe = 0) (MN551 185.934 nM, Cycle 19 (90 min), n=1): 0.9172 and 0.936 and 0.9397
Anisotropy normalised (0 nM MN551 = 1, free probe = 0) (MN551 185.934 nM, Cycle 20 (95 min), n=1): 0.9014 and 0.9041 and 0.8899
Anisotropy based on Raw Data (485) (MN551 195.312 nM): 281 and 276.5 and 273
Fb, fraction bound (MN551 195.312 nM, Cycle 2 (5 min)): 0.9639 and 1.006 and 1.008
Anisotropy (MN551 195.312 nM, Cycle 12 (55 min)): 272.9 and 273.5 and 273
Anisotropy based on Raw Data (485) (MN551 260.308 nM): 270.2 and 268.2 and 264.5
Normalised anisotropy (0 nM MN551 = 1, free probe = 0) (MN551 260.308 nM, Cycle 13 (60 min), n=1): 0.8241 and 0.8101 and 0.8658
Normalised anisotropy (0 nM MN551 = 1, free probe = 0) (MN551 260.308 nM, Cycle 14 (65 min), n=1): 0.8651 and 0.8427 and 0.8474
Normalised anisotropy (0 nM MN551 = 1, free probe = 0) (MN551 260.308 nM, Cycle 15 (70 min), n=1): 0.8655 and 0.8321 and 0.8452
Fb, fraction bound (MN551 260.308 nM, Cycle 3 (10 min)): 0.9027 and 0.9023 and 0.8716
Anisotropy data 485,520,520 (MN551 260.308 nM, Cycle 6 (25 min)): 268.3 and 257.5 and 257.9
